From article PMC8746696 (Molecules, 2021)

Tests used:
TDP1 = TDP1 (Homo sapiens, UniProt Q9NUW8); experiment: Real-time fluorescence detection of TDP1 activity (FAM/BHQ1 oligonucleotide biosensor); assay type: biochemical; conditions: concentration that inhibits the activity of the enzyme by 50%; read-out: TDP1 IC50
From the text: For real-time detection of TDP1 activity, we used the oligonucleotide biosensor based on the ability of TDP1 to remove fluorophore quenchers from the 3′-end of DNA [29]. The hexadecameric oligonucleotide carried 5(6)-carboxyfluorescein (FAM) at the 5′-end and fluorophore quencher BHQ1 (Black Hole Quencher-1) at the 3′-end. TDP1 inhibitors prevent the removal of fluorophore quenchers, thus reducing fluorescence intensity.
TDP1 activity was detected, as described by intensity measurement in a reaction of quencher removal from a fluorophore quencher–coupled DNA oligonucleotide catalyzed by TDP1. The reaction was carried out at different concentrations of inhibitors (the control samples contained 1% of DMSO). The reaction mixtures contained TDP1 buffer (50 mM Tris-HCl pH 8.0, 50 mM NaCl, and 7 mM β-mercaptoethanol), 50 nM biosensor, and an inhibitor being tested. Purified TDP1 (1.5 nM) triggered the reaction. The biosensor (5′-[FAM] AAC GTC AGGGTC TTC C [BHQ]-3′) was synthesized in the Laboratory of Nucleic Acid Chemistry at the Institute of Chemical Biology and Fundamental Medicine (Novosibirsk, Russia).
The reactions were incubated on a POLARstar OPTIMA fluorimeter (BMG LABTECH, GmbH, Ortenberg, Germany) to measure fluorescence every 60 s (ex. 485/em. 520 nm) during the linear phase (here, data from minute 0 to minute 8). The values of IC50 were determined using a six-point concentration response curve in a minimum of three independent experiments and were calculated using MARS Data Analysis 2.0 (BMG LABTECH, Ortenberg, Germany).

[1] = Intrinsic cytotoxicity, EZ4U assay, HeLa; conditions: human, HeLa cells
Protocol: (§1) Next, we examined the intrinsic cytotoxicity of the compounds on HeLa cervical cancer cells and human embryonic kidney derived cells HEK293A.
(§2) Cytotoxicity of the compounds to HeLa (human cervical cancer) and HEK293A (human embryonic kidney) cell lines was examined using the EZ4U Cell Proliferation and Cytotoxicity Assay (Biomedica, Vienna, Austria), according to the manufacturer’s protocols. The cells were grown in Iscove’s modified Dulbecco’s medium (IMDM) with 40 μg/mL gentamicin, 50 IU/mL penicillin, 50 μg/mL streptomycin (MP Biomedicals, Waltham, MA, USA), and 10% of fetal bovine serum (Biolot, Saint Petersburg, Russia) in a 5% CO2 atmosphere. After the formation of a 30–50%monolayer, the tested compounds were added to the medium. […] The volume of the added reagents was 1/100 of the total volume of the culture medium, and the amount of DMSO was 1% of the final volume. Control cells were grown in the presence of 1% DMSO. The cell culture was monitored for three days.

HeLa cells [2] = experiment: Intrinsic cytotoxicity, EZ4U assay, HeLa
Protocol: as §1, §2

[3] = Intrinsic cytotoxicity, EZ4U assay, HEK293A; conditions: human, HEK293A cells
Protocol: as §1, §2

HeLa cells [4] = experiment: Influence on topotecan cytotoxicity (sensitization, combination index); assay type: cell-based, human
Protocol: The inhibitors were studied, using their non-toxic concentration, to determine the cytotoxicity of topotecan, which is widely used in the treatment of cancer.
The concentration of these two compounds was increased to 10 μM and a more distinct effect was observed (Figure 3B). The combination index (CI) for different concentrations of topotecan and 5 at 10 μM was in the range 0.26–0.44, and for 8 at 10 μM, it was 0.18–0.30 (Supplementary Materials, Tables S1 and S2). CI value <1 indicates a synergistic effect of topotecan and compounds 5 and 8 [34].
The cell culture was monitored for three days.

HeLa cells [5] = experiment: as above; assay type: cell-based, human; conditions: compound 5 μM
recombinant human TDP2 = target: T1, recombinant human TDP2 (Homo sapiens, UniProt O95551); experiment: Gel-based TDP2 activity assay (removal of 5'-tyrosine from oligonucleotide, PAGE); assay type: biochemical; design: key to Tdp2 activity, c 200 µM / Tdp2 (inhibitor concentration 1 mM): TDP2 active (+); -: inactive (−); conditions: for Tdp2 activity, c 200 µM: c 200 µM (Table S3 head); for Tdp2 (inhibitor concentration 1 mM) / remaining activity at 1000 µM: inhibitor 1 mM; for remaining activity at 1000 µM: residual enzyme activity, read-out: TDP2 (Inhibitor Concentration 1 mM), residual activity of TDP2
T1 sequence (O95551 1-362): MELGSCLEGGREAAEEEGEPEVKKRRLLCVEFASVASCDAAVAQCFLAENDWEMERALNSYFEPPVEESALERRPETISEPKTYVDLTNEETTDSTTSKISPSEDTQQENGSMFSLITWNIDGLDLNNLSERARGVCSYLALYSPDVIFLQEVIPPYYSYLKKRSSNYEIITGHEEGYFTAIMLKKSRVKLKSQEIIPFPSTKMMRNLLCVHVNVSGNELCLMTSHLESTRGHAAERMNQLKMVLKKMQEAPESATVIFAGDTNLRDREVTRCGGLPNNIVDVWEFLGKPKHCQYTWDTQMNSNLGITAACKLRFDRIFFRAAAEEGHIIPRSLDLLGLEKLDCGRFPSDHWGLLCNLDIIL
Protocol: We investigated the activity against the TDP2 enzyme for compounds 4–10, 12–15, and 17–19 (Table 1). TDP2 was tested for its ability to eliminate tyrosine residue from the 5’-end of the oligonucleotide substrate. The TDP2 reaction products were separated under denaturing conditions in polyacrylamide gel (PAGE). […] Note that as different assays formats were used for TDP1 and TDP2 inhibition, the value of these assays cannot be directly compared. A paper on derivatives of usnic acid as effective TDP1 inhibitors and mild inhibitors of TDP2 was recently published. […] More inhibitors of this enzyme have also been reported in the literature. Obviously, further work for increasing activity against TDP2 is needed.
The oligonucleotide with tyrosine residue on the 5′-end (5′-tyrosine-AAC GTC AGG GTC TTC C-FAM-3′) was used for the TDP2 enzyme activity assay. The TDP2 reaction products were separated under denaturing conditions in polyacrylamide gel (PAGE). The reaction was performed in a final volume of 20 μL using 100 nM substrate incubated with 200 nM recombinant human TDP2 in the absence or presence of the inhibitor for 10 min at 37 °C in a buffer containing 50 mM Tris-HCl, pH 8.0, 50 mM NaCl, 7 mM β-mercaptoethanol. Reactions were terminated by the addition of gel loading buffer contained 10% formamide, 7 M carbamide, 0.1% xylene cyanol, and 0,1% bromophenol blue. The samples were heated at 90 °C for 7 min before loading on the gel. The reaction products were separated by electrophoresis in a 20% denaturing PAGE with 7 M carbamide. A Typhoon FLA 9500 phosphorimager (GE Healthcare) was used for gel scanning and imaging. Each experiment was carried out in three independent replicates. The data were analyzed with QuantityOne 4.6.7 software.

HeLa cells [6] = tested on: HeLa cells
Protocol: as §1, §2

Chain of TDP1 (Q9NUW8 whole entry): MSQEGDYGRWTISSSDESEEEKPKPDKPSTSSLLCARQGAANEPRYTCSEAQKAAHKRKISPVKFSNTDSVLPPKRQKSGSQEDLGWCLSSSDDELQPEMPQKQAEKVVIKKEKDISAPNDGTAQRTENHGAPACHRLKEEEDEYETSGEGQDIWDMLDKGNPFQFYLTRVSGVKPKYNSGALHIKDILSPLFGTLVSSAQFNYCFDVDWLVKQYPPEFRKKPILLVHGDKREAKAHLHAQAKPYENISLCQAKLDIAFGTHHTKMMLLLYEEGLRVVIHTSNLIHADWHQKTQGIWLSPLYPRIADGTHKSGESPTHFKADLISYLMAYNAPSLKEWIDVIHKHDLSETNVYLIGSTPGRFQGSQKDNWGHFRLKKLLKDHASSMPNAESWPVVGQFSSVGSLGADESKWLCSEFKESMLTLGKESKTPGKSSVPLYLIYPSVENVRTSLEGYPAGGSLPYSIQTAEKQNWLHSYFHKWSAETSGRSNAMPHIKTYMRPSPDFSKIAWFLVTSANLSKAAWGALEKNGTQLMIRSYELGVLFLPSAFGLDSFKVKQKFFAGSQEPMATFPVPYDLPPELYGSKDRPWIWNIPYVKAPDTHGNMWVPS

SMILES	IC50 (TDP1) [µM]	CC50 at 72 h [1] [µM]	HeLa cell death (HeLa cells [2]; at 100 μM)	CC50 at 72 h [3] [µM]	CI (HeLa cells [4]; Dose Tpc 0.3 + compound 10 μM)	Effect (HeLa cells [4]; Dose Tpc 0.3 + compound 10 μM)	CI (HeLa cells [4]; Dose Tpc 0.5 + compound 10 μM)	Effect (HeLa cells [4]; Dose Tpc 0.5 + compound 10 μM)	CI (HeLa cells [4]; Dose Tpc 1.0 + compound 10 μM)	Effect (HeLa cells [4]; Dose Tpc 1.0 + compound 10 μM)	CI (HeLa cells [4]; Dose Tpc 2.0 + compound 10 μM)	Effect (HeLa cells [4]; Dose Tpc 2.0 + compound 10 μM)	CI (HeLa cells [4]; Dose Tpc 4.0 + compound 10 μM)	Effect (HeLa cells [4]; Dose Tpc 4.0 + compound 10 μM)	sensitizing effect on topotecan cytotoxicity (HeLa cells [5])	Tdp2 activity, c 200 µM (recombinant human TDP2)	Tdp2 (inhibitor concentration 1 mM) (recombinant human TDP2)	remaining activity at 1000 µM (recombinant human TDP2) [%]	HeLa cell death (HeLa cells [2]; at 20 μM) [%]	semi-toxic concentrations (HeLa cells [6])
C[C@H](CCC(=O)NCCc1c[nH]c2ccccc12)[C@H]1CC[C@H]2[C@@H]3CC[C@@H]4C[C@H](OCc5ccccc5)CC[C@]4(C)[C@H]3C[C@H](O)[C@]12C [Compound 5, N-(2″-(1H-Indol-3′-yl)ethyl)-3α-benzyloxy-12α-hydroxy-5β-cholane-24-amide]	0.24 ± 0.01	> 100	40%	> 100	0.4463	0.61	0.3748	0.76	0.3937	0.86	0.2628	0.95	0.4189	0.96	greatest sensitizing effect	+	+	28 ± 5		
C[C@H](CCC(=O)Nc1ccc(Br)cc1)[C@H]1CC[C@H]2[C@@H]3CC[C@@H]4C[C@H](OCc5ccccc5)CC[C@]4(C)[C@H]3C[C@H](O)[C@]12C [Compound 8, N-(4′-Bromophenyl)-3α-benzyloxy-12α-hydroxy-5β-cholane-24-amide]	0.57 ± 0.3	> 100	maintaining this level of toxicity	> 100			0.2446	0.67	0.2817	0.78	0.1757	0.92	0.3046	0.93	greatest sensitizing effect	+	+	47 ± 3	40	
C[C@H](CCC(=O)NCCCc1cc(C(C)(C)C)c(O)c(C(C)(C)C)c1)[C@H]1CC[C@H]2[C@@H]3CC[C@@H]4C[C@H](OCc5ccccc5)CC[C@]4(C)[C@H]3C[C@H](OCc3ccccc3)[C@]12C [Compound 10, N-(3″-(3′,5′-Di-tert-butyl-4′-hydroxyphenyl)propyl)-3α,12α-dibenzyloxy-5β-cholane-24-amide]	0.37 ± 0.17	> 100		> 100												+	+	45 ± 6		
COc1cc([C@@H]2c3cc4c(cc3[C@@H](O[C@@H]3O[C@@H]5CO[C@@H](C)O[C@H]5[C@H](O)[C@H]3O)[C@H]3COC(=O)[C@H]23)OCO4)cc(OC)c1O [Etoposide, reference compound]		6.2 ± 0.6		5.9 ± 1.8																micromolar
CC[C@@]1(O)C(=O)OCc2c1cc1n(c2=O)Cc2cc3c(CN(C)C)c(O)ccc3nc2-1 [Topotecan, reference compound]		0.9 ± 0.1		0.33 ± 0.07																submicromolar
